Measurements published in US10351548B2, “2-oxo-1,2-dihydropyridine-3-carboxamide compounds and their use as inhibitors of PDK1” (INTERNATIONAL SOCIETY FOR DRUG DEVELOPMENT S.R.L., priority 2015, dated 2019).
Where two headings read alike, the source gives them in different places.

Assays:
[1] = target: PDK1 Direct kinase (Homo sapiens (Human), UniProt O15530); assay: Kinase-specific FRET-based Z'-LYTE assay against PDK1 Direct kinase; assay type: biochemical
Description: The compounds of Formula (I) and (II) were tested in the biological test named Kinase-specific Z′-LYTE® assay (Invitrogen Corporation, Life Technologies).

[2] = system: U87MG cells; assay: U87MG cell proliferation, MTS assay; assay type: cell-based, human; conditions: for IC50: Homo sapiens, U-87 MG, 72 h, MTS assay
Description: The U87MG cell line was obtained from the National Institute for Cancer Research of Genoa (Italy) and cultured in DMEM 10% FBS and 2 mM glutamine. To isolate GSCs, approximately 2.0×10^6 cells were suspended in 1 mL of a defined serum-free Neural Stem Cell (NSC) medium (Daniele, S., et al., Modulation of A1 and A2B adenosine receptor activity: a new strategy to sensitise glioblastoma stem cells to chemotherapy. Cell death & disease, 2014. 5(11): p. e1539). After 3-4 days of culture, the neurospheres were collected, suspended in NSC medium, dissociated into single cells, and plated for the assays. For the long-term treatment of cells, NSC or complete medium containing drugs was replaced every two to three days.
The human U87MG cells or GSCs were seeded at a density of 3×10^3 cells/well. After 24 h, the cells were treated from one to seven days with fresh growth medium containing different concentrations of SA16, SA23 or IB35. Following the treatment period, cell proliferation was determined using the MTS assay according to manufacturer's instruction. The absorbance of formazan at […] was measured in a colorimetric assay with an automated plate reader (Victor Wallac 2, Perkin Elmer). The results were calculated by subtracting the mean background from the values obtained from each evaluation and were expressed as the percentage of the control (untreated cells). Sigmoid dose-response curve was generated, from which the IC50 values were derived.
As representative GBM cell line, the above U87MG cells were used; this human cell line resulted an appropriate model to study the effects of PDK1 inhibition, because it is deficient for the tumour suppressor phosphatase and tensin homologue (PTEN), a negative regulator of the PI3K/AKT pathway (Wang, S. I., et al., Somatic mutations of PTEN in glioblastoma multiforme. Cancer research, 1997. 57(19): p. 4183-4186). To examine the effects of SA16, SA23 and IB35 on GBM cell growth/survival, U87MG cells were incubated with different concentrations of the new compounds (1 nM-10 μM) for 24 and 72 h. Specifically, U87MG cells were treated in complete medium with different concentrations of SA16, SA23 or IB35 (1 nM-10 μM) for 24 h (A) or 72 h (B). At the end of treatment, cell proliferation was measured using the MTS assay. The data are expressed as a percentage with respect to that of untreated cells (control), which was set to 100%, and are the mean values±SEM of three independent experiments, each performed in duplicate. The significance of the differences reported in FIGS. 1 and 2 was determined with a one-way ANOVA with Bonferroni post-test (* p<0.05, **p<0.01, *** p<0.001 vs. control cells).

[3] = system: GSCs isolated from U87MG cells; assay: Annexin V and 7-AAD staining in GSCs (apoptosis); assay type: cell-based, human; conditions: 10 μM, 7 days
Description: Dual staining with Annexin V coniugated to fluorescein-isothiocyanate (FITC) and 7-amino-actinomysin (7-AAD) was performed using the commercially available kit (Muse Annexin V and Dead Cell Kit; Merck KGaA, Darmstadt, Germany). U87MG cells or GSCs were treated with DMSO (control), SA16, SA23 or IB35 for 72 h or seven days, respectively. At the end of the treatment periods, the percentages of living, apoptotic and dead cells were acquired and analysed by Muse™ Cell Analyzer as previously described (Daniele, S., et al., Combined inhibition of AKT/mTOR and MDM2 enhances Glioblastoma Multiforme cell apoptosis and differentiation of cancer stem cells. Sci. Rep., 2015. 5.).
It was investigated if the reduction of cell proliferation elicited by the two compounds could be associated to cell apoptosis. […] At the end of treatments, the cells were collected and the degree of phosphatidylserine externalisation was evaluated using the Annexin V protocol, as above described (FIG. 10). The data were expressed as the percentage of apoptotic cells (early-apoptotic in white, late-apoptotic/necrotic in grey) relative to the total number of cells and represented in FIG. 11. […] The significance of the differences was determined with a one-way ANOVA with Bonferroni post-test (*** p<0.001 vs. control).

[4] = target: LCK (Homo sapiens (Human), UniProt P06239); assay: IB35 kinases profiling at 100 nM (ZLYTE); assay type: biochemical; conditions: IB35 100 nM, ATP Km app
Chain of LCK (P06239 whole entry, species assumed): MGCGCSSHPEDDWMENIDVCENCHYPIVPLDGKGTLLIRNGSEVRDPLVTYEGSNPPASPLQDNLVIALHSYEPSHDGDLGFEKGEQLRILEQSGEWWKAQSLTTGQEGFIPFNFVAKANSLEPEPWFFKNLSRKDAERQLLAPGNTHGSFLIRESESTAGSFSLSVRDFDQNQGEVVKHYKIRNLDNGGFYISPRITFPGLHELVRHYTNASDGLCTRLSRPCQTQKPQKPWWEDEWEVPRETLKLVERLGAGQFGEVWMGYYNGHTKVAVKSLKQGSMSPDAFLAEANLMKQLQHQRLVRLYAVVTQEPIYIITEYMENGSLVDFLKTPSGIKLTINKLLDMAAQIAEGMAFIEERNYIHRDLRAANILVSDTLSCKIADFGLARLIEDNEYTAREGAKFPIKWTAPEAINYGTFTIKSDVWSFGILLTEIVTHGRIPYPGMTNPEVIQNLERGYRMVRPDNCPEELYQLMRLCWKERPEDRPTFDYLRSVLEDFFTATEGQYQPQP
Description: (§1) The results are reported below

[5] = target: PRKCA (PKC alpha) (Homo sapiens (Human), UniProt P17252); assay: IB35 kinases profiling at 100 nM (ZLYTE); assay type: biochemical; conditions: IB35 100 nM, ATP Km app
Description: as §1

[6] = target: MAPKAPK2 (Homo sapiens (Human), UniProt P49137); assay: IB35 kinases profiling at 100 nM (ZLYTE); assay type: biochemical; conditions: IB35 100 nM, ATP Km app
Chain of MAPKAPK2 (P49137 whole entry, species assumed): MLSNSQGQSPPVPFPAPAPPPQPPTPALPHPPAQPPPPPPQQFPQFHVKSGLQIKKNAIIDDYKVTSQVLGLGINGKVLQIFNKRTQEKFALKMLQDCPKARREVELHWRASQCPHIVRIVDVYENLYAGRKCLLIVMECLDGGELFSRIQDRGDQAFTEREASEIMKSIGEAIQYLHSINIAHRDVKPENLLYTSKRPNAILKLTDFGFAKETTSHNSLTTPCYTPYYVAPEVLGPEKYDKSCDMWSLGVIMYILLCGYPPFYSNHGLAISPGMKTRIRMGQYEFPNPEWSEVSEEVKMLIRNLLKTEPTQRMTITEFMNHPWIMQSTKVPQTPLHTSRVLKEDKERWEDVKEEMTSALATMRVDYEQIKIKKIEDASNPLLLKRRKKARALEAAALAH
Description: as §1

[7] = target: RPS6KA1 (RSK1) (Homo sapiens (Human), UniProt Q15418); assay: IB35 kinases profiling at 100 nM (ZLYTE); assay type: biochemical; conditions: IB35 100 nM, ATP Km app
Chain of RPS6KA1 (RSK1) (Q15418 whole entry, species assumed): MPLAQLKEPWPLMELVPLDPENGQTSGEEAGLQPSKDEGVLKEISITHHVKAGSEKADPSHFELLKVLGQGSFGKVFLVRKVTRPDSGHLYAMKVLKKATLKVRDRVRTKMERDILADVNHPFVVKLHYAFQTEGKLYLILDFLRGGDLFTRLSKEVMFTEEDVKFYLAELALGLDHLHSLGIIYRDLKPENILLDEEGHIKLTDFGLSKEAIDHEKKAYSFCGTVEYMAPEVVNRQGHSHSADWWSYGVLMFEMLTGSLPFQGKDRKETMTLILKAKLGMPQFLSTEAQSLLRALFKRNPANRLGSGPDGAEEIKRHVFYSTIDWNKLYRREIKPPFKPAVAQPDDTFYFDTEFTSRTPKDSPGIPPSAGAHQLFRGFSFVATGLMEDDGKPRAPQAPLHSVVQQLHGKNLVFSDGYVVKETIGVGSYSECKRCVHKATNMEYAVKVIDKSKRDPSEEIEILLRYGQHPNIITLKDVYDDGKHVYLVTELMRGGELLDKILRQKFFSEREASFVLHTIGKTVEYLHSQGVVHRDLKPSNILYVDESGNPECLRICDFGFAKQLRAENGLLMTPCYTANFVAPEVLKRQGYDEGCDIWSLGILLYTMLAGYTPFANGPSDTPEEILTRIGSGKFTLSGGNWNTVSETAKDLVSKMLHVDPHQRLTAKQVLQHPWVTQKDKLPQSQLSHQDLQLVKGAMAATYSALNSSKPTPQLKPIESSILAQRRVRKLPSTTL
Description: as §1

[8] = target: CSNK1A1 (CK1 alpha 1) (Homo sapiens (Human), UniProt P48729); assay: IB35 kinases profiling at 100 nM (ZLYTE); assay type: biochemical; conditions: IB35 100 nM, ATP Km app
Chain of CSNK1A1 (CK1 alpha 1) (P48729 whole entry, species assumed): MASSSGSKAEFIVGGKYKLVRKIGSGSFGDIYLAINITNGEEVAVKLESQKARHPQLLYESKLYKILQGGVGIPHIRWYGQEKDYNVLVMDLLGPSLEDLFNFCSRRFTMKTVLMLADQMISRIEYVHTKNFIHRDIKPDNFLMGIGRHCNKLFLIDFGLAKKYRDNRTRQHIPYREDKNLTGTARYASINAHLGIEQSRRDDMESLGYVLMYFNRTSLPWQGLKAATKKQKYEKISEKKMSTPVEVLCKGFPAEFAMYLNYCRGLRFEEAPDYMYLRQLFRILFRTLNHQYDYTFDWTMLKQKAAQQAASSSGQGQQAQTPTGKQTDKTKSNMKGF
Description: as §1

[9] = target: RPS6KB1 (p70S6K) (Homo sapiens (Human), UniProt P23443); assay: IB35 kinases profiling at 100 nM (ZLYTE); assay type: biochemical; conditions: IB35 100 nM, ATP Km app
Description: as §1

[10] = target: PRKACA (PKA) (Homo sapiens (Human), UniProt P17612); assay: IB35 kinases profiling at 100 nM (ZLYTE); assay type: biochemical; conditions: IB35 100 nM, ATP Km app
Description: as §1

[11] = target: ITK (Homo sapiens (Human), UniProt Q08881); assay: IB35 kinases profiling at 100 nM (ZLYTE); assay type: biochemical; conditions: IB35 100 nM, ATP Km app
Chain of ITK (Q08881 whole entry, species assumed): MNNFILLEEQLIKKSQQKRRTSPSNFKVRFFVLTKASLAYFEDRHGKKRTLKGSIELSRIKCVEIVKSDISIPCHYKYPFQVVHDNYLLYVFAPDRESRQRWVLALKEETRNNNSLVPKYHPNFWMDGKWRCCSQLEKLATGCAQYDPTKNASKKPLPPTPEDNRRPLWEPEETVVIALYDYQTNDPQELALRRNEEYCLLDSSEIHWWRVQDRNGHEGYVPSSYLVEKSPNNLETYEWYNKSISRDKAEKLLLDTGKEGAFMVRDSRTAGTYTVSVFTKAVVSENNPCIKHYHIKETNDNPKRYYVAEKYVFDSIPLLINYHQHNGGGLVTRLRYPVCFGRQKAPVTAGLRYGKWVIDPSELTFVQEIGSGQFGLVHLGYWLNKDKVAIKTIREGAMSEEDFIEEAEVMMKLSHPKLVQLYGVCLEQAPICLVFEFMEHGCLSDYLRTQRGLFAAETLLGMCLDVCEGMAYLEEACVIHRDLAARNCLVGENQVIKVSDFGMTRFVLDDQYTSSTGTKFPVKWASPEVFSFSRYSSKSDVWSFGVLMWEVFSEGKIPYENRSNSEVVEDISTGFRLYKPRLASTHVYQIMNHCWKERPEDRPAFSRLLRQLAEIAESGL
Description: as §1

[12] = target: JAK1 (Homo sapiens (Human), UniProt P23458); assay: IB35 kinases profiling at 100 nM (ZLYTE); assay type: biochemical; conditions: IB35 100 nM, ATP Km app
Chain of JAK1 (P23458 whole entry, species assumed): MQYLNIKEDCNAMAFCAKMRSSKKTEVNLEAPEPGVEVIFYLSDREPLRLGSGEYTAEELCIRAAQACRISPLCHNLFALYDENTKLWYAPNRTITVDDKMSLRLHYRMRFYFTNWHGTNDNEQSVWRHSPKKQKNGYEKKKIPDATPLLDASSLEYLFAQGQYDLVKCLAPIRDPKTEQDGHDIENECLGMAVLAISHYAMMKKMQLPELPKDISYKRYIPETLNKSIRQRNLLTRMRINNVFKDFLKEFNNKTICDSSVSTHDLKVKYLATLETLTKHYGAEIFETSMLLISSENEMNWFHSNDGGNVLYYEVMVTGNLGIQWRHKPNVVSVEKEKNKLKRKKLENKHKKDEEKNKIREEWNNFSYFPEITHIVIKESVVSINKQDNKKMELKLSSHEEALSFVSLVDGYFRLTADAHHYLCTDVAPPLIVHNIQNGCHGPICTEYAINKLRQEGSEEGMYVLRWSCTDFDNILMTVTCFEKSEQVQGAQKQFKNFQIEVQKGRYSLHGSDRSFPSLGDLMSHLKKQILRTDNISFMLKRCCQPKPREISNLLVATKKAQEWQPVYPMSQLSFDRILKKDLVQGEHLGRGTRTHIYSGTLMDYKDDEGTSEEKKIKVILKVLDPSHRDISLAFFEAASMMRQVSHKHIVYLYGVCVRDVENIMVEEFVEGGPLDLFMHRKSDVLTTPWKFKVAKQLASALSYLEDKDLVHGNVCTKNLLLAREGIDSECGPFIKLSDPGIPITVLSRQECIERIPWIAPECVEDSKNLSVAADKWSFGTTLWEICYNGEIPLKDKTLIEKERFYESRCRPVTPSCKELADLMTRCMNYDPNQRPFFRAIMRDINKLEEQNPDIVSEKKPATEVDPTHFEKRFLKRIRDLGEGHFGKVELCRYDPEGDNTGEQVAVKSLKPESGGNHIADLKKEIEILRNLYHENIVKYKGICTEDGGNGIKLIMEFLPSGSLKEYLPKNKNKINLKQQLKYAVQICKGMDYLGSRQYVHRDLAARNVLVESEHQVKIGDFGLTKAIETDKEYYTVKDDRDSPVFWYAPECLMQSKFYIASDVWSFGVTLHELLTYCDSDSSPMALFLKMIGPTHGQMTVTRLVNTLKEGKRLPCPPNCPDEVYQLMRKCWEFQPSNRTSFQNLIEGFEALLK
Description: as §1

[13] = read-out: IC50 (nM) PDK1 direct

Chain of PDK1 Direct kinase (O15530 whole entry): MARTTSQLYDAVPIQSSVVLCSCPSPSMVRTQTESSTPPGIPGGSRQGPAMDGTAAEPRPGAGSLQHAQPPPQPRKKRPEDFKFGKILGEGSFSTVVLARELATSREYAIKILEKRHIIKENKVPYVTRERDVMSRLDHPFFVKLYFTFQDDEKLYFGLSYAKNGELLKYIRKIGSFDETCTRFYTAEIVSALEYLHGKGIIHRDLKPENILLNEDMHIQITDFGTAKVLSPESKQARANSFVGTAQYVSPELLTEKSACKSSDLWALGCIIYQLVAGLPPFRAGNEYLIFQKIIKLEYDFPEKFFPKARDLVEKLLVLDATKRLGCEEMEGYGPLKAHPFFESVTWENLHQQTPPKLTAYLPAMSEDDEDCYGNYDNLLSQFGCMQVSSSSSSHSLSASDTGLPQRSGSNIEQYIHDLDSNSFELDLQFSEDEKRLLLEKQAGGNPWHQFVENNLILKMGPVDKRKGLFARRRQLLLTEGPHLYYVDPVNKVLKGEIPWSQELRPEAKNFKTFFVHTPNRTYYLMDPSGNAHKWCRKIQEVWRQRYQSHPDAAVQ

With `O=C1Nc2ccc(NC(=O)[C@H](NC(=O)c3cccn(Cc4ccc(F)c(F)c4)c3=O)c3ccccc3)cc2/C1=C/c1ncc[nH]1` [SA23, (Z)—(R)—N-(2-((3-((1H-imidazol-2-yl)methylene)-2-oxoindolin-5-yl)amino)-2-oxo-1-phenylethyl)-1-(3,4-difluorobenzyl)-2-oxo-1,2-dihydropyridine-3-carboxamide] the inhibition at 10 µM [1] was over 50%, the IC50 [1, 13] was 1520 nM and the IC50 ([1]; read-out: PDK1 IC50) was 1520 nM. It also gave an IC50 ([2]; read-out: IC50 U87MG) of 1.17 ± 0.1 µM and an IC50 ([2]; read-out: IC50 U87MG cell proliferation) of 1.17 ± 0.1 µM.

`O=C(CNC(=O)c1cccn(Cc2ccc(F)c(F)c2)c1=O)Nc1ccc2c(c1)/C(=C/c1cnc[nH]1)C(=O)N2` [IB35, (Z)—N-(2-((3-((1H-imidazol-5-yl)methylene)-2-oxoindolin-5-yl)amino)-2-oxoethyl)-1-(3,4-difluorobenzyl)-2-oxo-1,2-dihydro pyridine-3-carboxamide] was tested, and the inhibition at 10 µM [1] was over 50%, the IC50 [1, 13] was 112 nM and the IC50 ([1]; read-out: PDK1 IC50) was 112 nM. For the same compound, the “percentage of total apoptotic cells” value [3] was 38.5±3.9%, the inhibition at 0.1 µM ([4]; read-out: % Inhibition 1) was 10% and the inhibition at 0.1 µM ([4]; read-out: % Inhibition 2) was 8%. For the same compound, the inhibition at 0.1 µM ([4]; read-out: % Inhibition Avg) was 9%, the inhibition at 0.1 µM ([5]; read-out: % Inhibition 1) was -2% and the inhibition at 0.1 µM ([5]; read-out: % Inhibition 2) was 2%. The inhibition at 0.1 µM ([5]; read-out: % Inhibition Avg) was 0%, the inhibition at 0.1 µM ([6]; read-out: % Inhibition 1) was -2% and the inhibition at 0.1 µM ([6]; read-out: % Inhibition 2) was 2%. It also gave an inhibition at 0.1 µM ([6]; read-out: % Inhibition Avg) of 0%, an inhibition at 0.1 µM ([7]; read-out: % Inhibition 1) of -3% and an inhibition at 0.1 µM ([7]; read-out: % Inhibition 2) of 7%. The inhibition at 0.1 µM ([7]; read-out: % Inhibition Avg) was 2%, the inhibition at 0.1 µM ([8]; read-out: % Inhibition 1) was -3% and the inhibition at 0.1 µM ([8]; read-out: % Inhibition 2) was -2%. The inhibition at 0.1 µM ([8]; read-out: % Inhibition Avg) was -2%, the inhibition at 0.1 µM ([9]; read-out: % Inhibition 1) was -3% and the inhibition at 0.1 µM ([9]; read-out: % Inhibition 2) was -10%. It also gave an inhibition at 0.1 µM ([9]; read-out: % Inhibition Avg) of -6%, an inhibition at 0.1 µM ([10]; read-out: % Inhibition 1) of -5% and an inhibition at 0.1 µM ([10]; read-out: % Inhibition 2) of -5%. For the same compound, the inhibition at 0.1 µM ([10]; read-out: % Inhibition Avg) was -5%, the inhibition at 0.1 µM ([11]; read-out: % Inhibition 1) was 17% and the inhibition at 0.1 µM ([11]; read-out: % Inhibition 2) was 12%. It also gave an inhibition at 0.1 µM ([11]; read-out: % Inhibition Avg) of 14%, an inhibition at 0.1 µM ([12]; read-out: % Inhibition 1) of -10% and an inhibition at 0.1 µM ([12]; read-out: % Inhibition 2) of -6%. The inhibition at 0.1 µM ([12]; read-out: % Inhibition Avg) was -8%, the “inhibition of U87MG cell proliferation” value ([2]; 24 h, higher effect observed (1 nM-10 μM tested)) was 41% and the IC50 ([2]; read-out: IC50 U87MG) was 0.45 ± 0.0462 µM.
